Experimental data reported in PubChem BioAssay (NCI).
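Five concentrations, 48 hours, 96-well plates. The concentration for full growth arrest is given as TGI.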

How the values were obtained:
Test in all cases: NCI anticancer screen, dose series, 48 h
[1] = tested on: 786-0 renal
[2] = tested on: A498 renal
[3] = tested on: A549 NSCLC
[4] = tested on: ACHN renal
[5] = tested on: CCRF-CEM leukemia
[6] = tested on: COLO 205 colon
[7] = tested on: DLD-1 colon
[8] = tested on: DMS 114 small cell lung
[9] = tested on: DMS 273 small cell lung
[10] = tested on: EKVX NSCLC
[11] = tested on: HCC-2998 colon
[12] = tested on: HCT-116 colon
[13] = tested on: HCT-15 colon
[14] = tested on: HL-60(TB) leukemia
[15] = tested on: HOP-18 NSCLC
[16] = tested on: HOP-62 NSCLC
[17] = tested on: HOP-92 NSCLC
[18] = tested on: HT29 colon
[19] = tested on: IGROV1 ovarian
[20] = tested on: K-562 leukemia
[21] = tested on: KM12 colon
[22] = tested on: KM20L2 colon
[23] = tested on: LOX IMVI melanoma
[24] = tested on: M14 melanoma
[25] = tested on: M19-MEL melanoma
[26] = tested on: MALME-3M melanoma
[27] = tested on: MOLT-4 leukemia
[28] = tested on: NCI-H226 lung
[29] = tested on: NCI-H23 lung
[30] = tested on: NCI-H460 lung
[31] = tested on: NCI-H522 lung
[32] = tested on: OVCAR-3 ovarian
[33] = tested on: OVCAR-4 ovarian
[34] = tested on: OVCAR-8 ovarian
[35] = tested on: RPMI-8226 leukemia
[36] = tested on: RXF 393 renal
[37] = tested on: RXF-631 renal
[38] = tested on: SF-268 CNS
[39] = tested on: SF-295 CNS
[40] = tested on: SF-539 CNS
[41] = tested on: SK-MEL-2 melanoma
[42] = tested on: SK-MEL-28 melanoma
[43] = tested on: SK-MEL-5 melanoma
[44] = tested on: SK-OV-3 ovarian
[45] = tested on: SN12C renal
[46] = tested on: SNB-19 CNS
[47] = tested on: SNB-75 CNS
[48] = tested on: SNB-78 CNS
[49] = tested on: SW-620 colon
[50] = tested on: TK-10 renal
[51] = tested on: U251 CNS
[52] = tested on: UACC-257 melanoma
[53] = tested on: UACC-62 melanoma
[54] = tested on: UO-31 renal
[55] = tested on: XF 498 CNS
[56] = tested on: BT-549 breast
[57] = tested on: CAKI-1 renal
[58] = tested on: DU-145 prostate
[59] = tested on: HS 578T breast
[60] = tested on: LXFL 529 NSCLC
[61] = tested on: MCF7 breast
[62] = tested on: MDA-MB-435
[63] = tested on: MDA-N
[64] = tested on: OVCAR-5 ovarian
[65] = tested on: PC-3 prostate
[66] = tested on: SR leukemia
[67] = tested on: T-47D breast

Compound: NC1CCC[C@H]1O (stereo partly drawn)
- TGI [1]: > 100 µM
- TGI [2]: > 100 µM
- TGI [3]: > 100 µM
- TGI [4]: > 100 µM
- TGI [5]: > 100 µM
- TGI [6]: > 100 µM
- TGI [7]: > 100 µM
- TGI [8]: > 100 µM
- TGI [9]: > 100 µM
- TGI [10]: > 100 µM
- TGI [11]: > 100 µM
- TGI [12]: > 100 µM
- TGI [13]: > 100 µM
- TGI [14]: > 100 µM
- TGI [15]: > 100 µM
- TGI [16]: > 100 µM
- TGI [17]: > 100 µM
- TGI [18]: > 100 µM
- TGI [19]: > 100 µM
- TGI [20]: > 100 µM
- TGI [21]: > 100 µM
- TGI [22]: > 100 µM
- TGI [23]: > 100 µM
- TGI [24]: > 100 µM
- TGI [25]: > 100 µM
- TGI [26]: > 100 µM
- TGI [27]: > 100 µM
- TGI [28]: > 100 µM
- TGI [29]: > 100 µM
- TGI [30]: > 100 µM
- TGI [31]: > 100 µM
- TGI [32]: > 100 µM
- TGI [33]: > 100 µM
- TGI [34]: > 100 µM
- TGI [35]: > 100 µM
- TGI [36]: > 100 µM
- TGI [37]: > 100 µM
- TGI [38]: > 100 µM
- TGI [39]: > 100 µM
- TGI [40]: > 100 µM
- TGI [41]: > 100 µM
- TGI [42]: > 100 µM
- TGI [43]: > 100 µM
- TGI [44]: > 100 µM
- TGI [45]: > 100 µM
- TGI [46]: > 100 µM
- TGI [47]: > 100 µM
- TGI [48]: > 100 µM
- TGI [49]: > 100 µM
- TGI [50]: > 100 µM
- TGI [51]: > 100 µM
- TGI [52]: > 100 µM
- TGI [53]: > 100 µM
- TGI [54]: > 100 µM
- TGI [55]: > 100 µM

Compound: C=C(CN(C)C)C(=O)c1ccc(OC2OC(COC(C)=O)C(OC(C)=O)C(OC(C)=O)C2OC(C)=O)cc1 (stereo not drawn)
- TGI [1]: 3.82 µM
- TGI [2]: 21 µM
- TGI [3]: 45.2 µM
- TGI [4]: 3.21 µM
- TGI [56]: 10.8 µM
- TGI [57]: 9.54 µM
- TGI [5]: 0.342 µM
- TGI [6]: 3.17 µM
- TGI [7]: 3.83 µM
- TGI [8]: 14.6 µM
- TGI [9]: > 51.7 µM
- TGI [58]: 31.3 µM
- TGI [10]: 54.2 µM
- TGI [11]: 36.8 µM
- TGI [12]: 6.12 µM
- TGI [13]: 11.3 µM
- TGI [14]: > 100 µM
- TGI [15]: 9.82 µM
- TGI [16]: 24.3 µM
- TGI [59]: > 83.7 µM
- TGI [18]: 12.2 µM
- TGI [19]: 36.1 µM
- TGI [20]: 0.474 µM
- TGI [21]: 41.6 µM
- TGI [22]: 40.8 µM
- TGI [23]: 8.49 µM
- TGI [60]: 2.9 µM
- TGI [24]: 11.2 µM
- TGI [26]: 7.51 µM
- TGI [61]: 5.51 µM
- TGI [62]: 14.2 µM
- TGI [63]: 11.1 µM
- TGI [28]: 19.8 µM
- TGI [29]: 43.3 µM
- TGI [30]: 40.8 µM
- TGI [32]: 14.5 µM
- TGI [33]: > 29.2 µM
- TGI [64]: 37.4 µM
- TGI [34]: 19.2 µM
- TGI [65]: 32 µM
- TGI [35]: > 100 µM
- TGI [36]: 3.69 µM
- TGI [37]: 29.3 µM
- TGI [38]: 62 µM
- TGI [39]: 36 µM
- TGI [40]: 30.6 µM
- TGI [41]: 33.3 µM
- TGI [42]: 9.22 µM
- TGI [43]: 20.3 µM
- TGI [44]: 35.5 µM
- TGI [45]: 26.2 µM
- TGI [46]: 39.4 µM
- TGI [47]: 38.5 µM
- TGI [48]: 50.8 µM
- TGI [66]: 4.94 µM
- TGI [49]: 3.17 µM
- TGI [67]: 15.7 µM
- TGI [50]: 7.06 µM
- TGI [51]: 46.2 µM
- TGI [52]: 5.94 µM
- TGI [53]: 22.4 µM
- TGI [54]: 6.73 µM
- TGI [55]: 9.77 µM
